Experimental data published in paper PMC7284870, “Antimicrobial Peptides from Rat-Tailed Maggots of the Drone Fly Eristalis tenax Show Potent Activity against Multidrug-Resistant Gram-Negative Bacteria” (Microorganisms, 2020).
Values after ≈ are worked out from the molar mass of the structure shown. Where two headings read alike, the source gives them in different places. No end group written: not given here.

Assays:
[1] = tested on: S. aureus ATCC 33592; format: cell-based, Staphylococcus aureus
Procedure, shortened: (§1)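 Broth microdilution in cation-adjusted Mueller–Hinton broth at 37 °C, with 18 h cultures diluted to 5 × 10^5 cells/mL and final peptide concentrations of 1024–0.03125 µg/mL. Growth was scored visually and by OD600. MIC is the lowest concentration with no growth; medium was optionally supplemented with 150 mM NaCl or 1.25 mM CaCl2.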

[2] = tested on: E. coli RKI 131/08; assay: microbe, parasite or virus in culture; format: cell-based, Escherichia coli
Experimental: (§2) The strains that were used in this study (Table 2 and Table S1) were cultivated at 37 °C in cation-adjusted Mueller–Hinton broth (CAMB) in Erlenmeyer flasks, or on the same medium with agar in Petri dishes. Exceptionally, Mycobacterium smegmatis was cultivated at 37 °C in brain heart infusion (BHI) medium that was supplemented with 1% Tween-80 in Erlenmeyer flasks, or on the same medium lacking detergent but with agar in Petri dishes. Strains listed with Robert Koch Institute (RKI) strain numbers are clinical isolates from the RKI strain collection originating from hospitalized patients in Germany. The remaining strains originated from the Sanofi strain collection and they were originally purchased from the American Type Culture Collection or the German Collection of Microorganisms and Cell Cultures. Meropenem/colistin-resistant strains were maintained, as described above, with the appropriate antibiotic added at levels below the minimal inhibitory concentration (MIC).
(§3) The MIC values were determined in 384-well microtiter plates with an assay volume of 20 µL. Immediately before each assay, the cultures of test organisms (bacteria grown for 18 h, Candida albicans and M. smegmatis grown for 48 h) were diluted with the appropriate medium to a density of 1 × 10^6 cells/mL (C. albicans), 1 × 10^5 cells/mL (M. smegmatis) or 5 × 10^5 cells per mL (other species). […] We transferred 2-µL aliquots from this dilution series to new 384-well microtiter plates while using a CyBio-Well 384-channel automated pipettor (Analytic Jena, Jena, Germany) and added 18 µL of the diluted suspension of each test species using a Viafill reagent dispenser (Integra), thus reducing the final peptide concentration 10-fold to the range 1024–0.03125 µg/mL. […] The growth of M. smegmatis was measured using the BacTiter-Glo luminescence test system (Promega, Madison, WI, USA). The growth of the other species was determined by visual inspection of the microtiter plate and turbidimetry based on the optical density at 600 nm (OD600). The MIC was defined as the peptide concentration at which no bacterial growth was observed. We supplemented the test medium with either 150 mM NaCl or 1.25 mM CaCl2 to represent monovalent and divalent cations to simulate physiological conditions.

[3] = tested on: K. pneumoniae RKI 93/10; assay: microbe, parasite or virus in culture; format: cell-based, Klebsiella pneumoniae
Experimental: as §2, §3

[4] = tested on: Enterobacter cloacae RKI 146/09; assay: microbe, parasite or virus in culture; format: cell-based
Experimental: as §2, §3

[5] = tested on: Acinetobacter baumannii ATCC 19606; format: cell-based
Procedure, shortened: as §1

[6] = tested on: Escherichia coli D31; format: cell-based
Procedure, shortened: as §1

[7] = tested on: Klebsiella oxytoca RKI 52/07; format: cell-based
Procedure, shortened: as §1

[8] = tested on: Klebsiella pneumoniae DSM 30104; format: cell-based
Procedure, shortened: as §1

[9] = tested on: Pseudomonas aeruginosa ATCC 27853; format: cell-based
Procedure, shortened: as §1

[10] = tested on: Staphylococcus aureus ATCC 25923; format: cell-based
Procedure, shortened: as §1

[11] = molecular target: human ERG (hERG) potassium channel (Homo sapiens, UniProt Q12809); assay: cell-based
Sequence of human ERG (hERG) potassium channel (Q12809 whole entry): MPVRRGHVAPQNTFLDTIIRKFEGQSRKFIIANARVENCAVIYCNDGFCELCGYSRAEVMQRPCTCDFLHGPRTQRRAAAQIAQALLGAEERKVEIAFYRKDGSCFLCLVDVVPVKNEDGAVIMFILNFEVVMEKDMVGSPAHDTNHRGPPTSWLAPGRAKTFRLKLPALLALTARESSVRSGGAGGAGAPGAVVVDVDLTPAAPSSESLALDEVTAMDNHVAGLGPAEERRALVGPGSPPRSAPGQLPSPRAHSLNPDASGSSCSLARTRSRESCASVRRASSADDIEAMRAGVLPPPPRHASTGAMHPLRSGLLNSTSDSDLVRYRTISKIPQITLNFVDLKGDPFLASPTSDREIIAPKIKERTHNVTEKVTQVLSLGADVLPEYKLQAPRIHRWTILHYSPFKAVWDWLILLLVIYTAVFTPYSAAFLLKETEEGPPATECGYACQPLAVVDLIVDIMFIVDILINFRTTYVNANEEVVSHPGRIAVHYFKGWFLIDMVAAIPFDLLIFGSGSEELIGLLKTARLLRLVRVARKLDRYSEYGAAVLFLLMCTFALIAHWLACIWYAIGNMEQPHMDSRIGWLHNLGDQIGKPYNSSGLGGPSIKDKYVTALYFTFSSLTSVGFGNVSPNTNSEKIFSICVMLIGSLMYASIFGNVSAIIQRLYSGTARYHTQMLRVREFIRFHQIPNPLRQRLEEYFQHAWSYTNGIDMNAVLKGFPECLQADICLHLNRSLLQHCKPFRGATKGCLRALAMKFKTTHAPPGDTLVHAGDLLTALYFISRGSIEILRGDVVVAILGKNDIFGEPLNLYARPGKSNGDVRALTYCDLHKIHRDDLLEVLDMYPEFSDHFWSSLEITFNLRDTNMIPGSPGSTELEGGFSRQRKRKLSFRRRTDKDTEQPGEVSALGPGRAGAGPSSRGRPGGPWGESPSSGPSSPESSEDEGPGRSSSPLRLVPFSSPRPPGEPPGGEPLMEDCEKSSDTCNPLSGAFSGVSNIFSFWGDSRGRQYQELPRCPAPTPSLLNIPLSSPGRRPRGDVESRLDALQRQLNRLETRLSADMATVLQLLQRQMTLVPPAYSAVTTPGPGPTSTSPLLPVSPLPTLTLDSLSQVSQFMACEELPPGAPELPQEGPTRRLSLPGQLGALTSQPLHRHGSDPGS
Experimental: The interaction of the peptides with the human ERG (hERG) potassium channel was analyzed using the automated patch-clamp method. Chinese hamster ovary (CHO) hERG Duo cells constitutively expressing hERG (B’SYS) were diluted to 8 × 10^6 cells/mL in Ex-Cell CHO medium (Sigma–Aldrich) containing 25 mM HEPES, 100 U/mL penicillin-streptomycin, and 0.004% soybean trypsin inhibitor. The peptides were diluted from a stock concentration of 10 mM in DMSO to final concentrations of 0.12, 0.37, 1.1, 3.3, 10, and 30 μM (0.5–124 µg/mL for […], 0.51–128 µg/mL for EtCec2-a, 0.49–122 µg/mL for EtCec3-a, 0.8–200 µg/mL for EtDip) in extracellular medium (150 mM NaCl, 4 mM KCl, 2 mM CaCl2, 1 mM MgCl2, 10 mM HEPES, 10 mM glucose) containing 0.06% Pluronic F-68 and 0.3% residual DMSO. The response of hERG to each peptide was assessed while using a QPatch HTX station and QPlates (Sophion/Biolin Scientific, Ballerup, Denmark) by recording the tail current following channel repolarization. Half-maximal inhibitory concentrations (IC50) were determined from a series of six concentrations applied to the cells in ascending order. Terfenadine citrate was used as a positive control and extracellular medium as a negative control.

[12] = CAMB + 0.075 µg/mL colistin (Col), n=3
[13] = CAMB adjusted to 150 mM NaCl, n=3

Compound	MIC ([1]; CAMB, 18 h, 37 °C, n = 4) [µg/mL]	MIC [2, 12] [µg/mL]	MIC [3, 12] [µg/mL]	MIC [4, 12] [µg/mL]	MIC [5, 12] [µg/mL]	MIC ([5]; CAMB, 18 h, 37 °C, n = 4) [µg/mL]	MIC ([6]; CAMB, 18 h, 37 °C, n = 4) [µg/mL]	MIC [7, 12] [µg/mL]	MIC ([7]; Table 5, CAMB, n=3) [µg/mL]	MIC [8, 12] [µg/mL]	MIC ([8]; CAMB, 18 h, 37 °C, n = 4) [µg/mL]	MIC ([9]; CAMB, 18 h, 37 °C, n = 4) [µg/mL]	MIC ([10]; CAMB, 18 h, 37 °C, n = 4) [µg/mL]	IC50 [11] [µM]	also measured
QFNMQGGGSPRQGFDVNANARFPIWQSQNARNSVHGTASYAQHLGGPYGNSRPNFGGGLQFT [EtDip]	>1024	4	>1024	>1024	>1024	>1024	>1024	4	>1024	4	>1024	>1024	>1024		MIC ([2]; Table 5, CAMB, n=3): >1024 µg/mL; MIC ([3]; Table 5, CAMB, n=3): >1024 µg/mL; MIC ([4]; Table 5, CAMB, n=3): >1024 µg/mL; MIC ([5]; Table 5, CAMB, n=3): >1024 µg/mL; MIC ([8]; Table 5, CAMB, n=3): >1024 µg/mL; IC50 hERG ([11]; CHO hERG Duo cells, QPatch, tail current, six concentrations): > 200 µg/mL
GFLKKIGKKLEGAVQRTRDATIQTIAVAQAAANVAATAKQ-NH2 [EtCec1-NH2]														> 30	MIC ([1]; ATCC 33592, 18 h): >1024 µg/mL; MIC ([2]; RKI 131/08, 18 h): 4 µg/mL; MIC ([3]; RKI 93/10, 18 h): 8 µg/mL; MIC ([5]; ATCC 19606, 18 h): 8 µg/mL; MIC ([6]; D31, 18 h): 4 µg/mL; MIC ([8]; DSM 30104, 18 h): 4 µg/mL; MIC ([9]; ATCC 27853, 18 h): 32 µg/mL; MIC ([10]; ATCC 25923, 18 h): >1024 µg/mL
C[C@@H](O)[C@H]1C(=O)N2C(C(=O)O)=C(S[C@@H]3CN[C@H](C(=O)N(C)C)C3)[C@H](C)[C@H]12 [MEM, meropenem]															MIC ([2]; Escherichia coli, RKI131/08): 32 µg/mL (≈ 83.4 µM); MIC ([3]; Klebsiella pneumoniae, RKI93/10): 64 µg/mL (≈ 167 µM); MIC ([4]; Enterobacter cloacae, RKI146/09): 16 µg/mL (≈ 41.7 µM); MIC ([7]; Table S1, RKI 52/07): 32 µg/mL (≈ 83.4 µM)
GWLRDFGKRIERTGQNIRDATIQTIGIAQEAANVAATLK-NH2 [EtCec2-NH2]	>1024	2	8	32	8	8	4	2	32	2	16	>1024	>1024	> 29.9	MIC [2, 13]: 16 µg/mL; MIC ([2]; Table 4, CAMB, n=3): 16 µg/mL; MIC [3, 13]: 256 µg/mL; MIC ([3]; Table 4, CAMB, n=3): 64 µg/mL; MIC [4, 13]: 64 µg/mL; MIC ([4]; Table 4, CAMB, n=3): 32 µg/mL; MIC [5, 13]: 8 µg/mL; MIC ([5]; Table 4, CAMB, n=3): 8 µg/mL; MIC [8, 13]: 32 µg/mL; MIC ([8]; Table 4, CAMB, n=3): 16 µg/mL
